The values that follow are results of earlier work, collected in US20210155895A1, “Pluripotent Stem Cell-Derived 3D Retinal Tissue and Uses Thereof” (LINEAGE CELL THERAPEUTICS, INC., priority 2016, published 2021).

One data set concerns PR (photoreceptors). To be noted: zaprinast 100 μM.
The test system of another data set is histone H3. The note with it: Koriyama et al. 2014.

Some results are limits rather than exact numbers.

As for `CCCOc1ccccc1-c1nc2nn[nH]c2c(=O)[nH]1` [zaprinast], in the data set on PR (photoreceptors), the PR degeneration result is reported as “induces PR degeneration at a level comparable to that observed in the mouse rd1 model” and the “effect on intracellular cGMP” value is given as “raises intracellular cGMP”. With `CCCC(CCC)C(=O)O` [valproic acid], in the data set with histone H3, the “effect on histone H3 acetylation” value was “induces histone H3 acetylation”. As for `CN(N=O)C(N)=O` [MNU, N-methyl, N-nitrosourea], in the data set with PR (photoreceptor) cells, the “time to PR cell death after application” value is given as at most 7 days. For the same compound, the PR cell death result with PR (photoreceptor) cells (involving the caspase pathway) was “selective and progressive PR cell death”.
